We go through two molecules from patent US11364220B2, “Compounds and methods for inhibiting CPY26 enzymes” (Queen's University at Kingston, priority 2016, dated 2022).

For test [1], the target named is CYP26A1 (Homo sapiens (Human), UniProt O43174). Nature of the test: Cell-based inhibitor assay, [H]-RA metabolism in CYP26A1 stably transfected HeLa cells. Particulars: for IC50: CYP26A1 transfected HeLa cells, 3 hours at 37° C., inhibition of all trans-RA metabolism, read-out: IC50 26A1. The method, then: (§1) CYP26A1 or CYP26B1 stably transfected HeLa cells were maintained in Minimum Essential Medium (MEM) containing 10% fetal bovine serum (FBS) and 100 μg/mL hygromycin. Exponentially growing cells were harvested by incubation in trypsin. Cells were then collected and re-plated in 48-well culture plates at 5×10^5 cells in 0.2 mL of culture medium containing 0.05 μCi [H]-RA in the presence or absence of increasing concentrations of a test compound. The test compounds were diluted in dimethyl sulfoxide (DMSO) and then added in duplicate to wells at 0.01, 0.1, 1, 10 and 100 μM final concentration. […] Cells were incubated for 3 hours at 37° C. Retinoids were then extracted using the procedure of Bligh, et al., (1959), Canadian Journal of Biochemistry 37, 911-917, which was modified by using dichloromethane instead of chloroform. Each sample's water soluble radioactivity level was quantified using a β-scintillation counter (using Ecolume scintillation fluid, available from MP Biomedicals of Solon, Ohio, USA).
Sequence of CYP26A1 (O43174 whole entry, species assumed): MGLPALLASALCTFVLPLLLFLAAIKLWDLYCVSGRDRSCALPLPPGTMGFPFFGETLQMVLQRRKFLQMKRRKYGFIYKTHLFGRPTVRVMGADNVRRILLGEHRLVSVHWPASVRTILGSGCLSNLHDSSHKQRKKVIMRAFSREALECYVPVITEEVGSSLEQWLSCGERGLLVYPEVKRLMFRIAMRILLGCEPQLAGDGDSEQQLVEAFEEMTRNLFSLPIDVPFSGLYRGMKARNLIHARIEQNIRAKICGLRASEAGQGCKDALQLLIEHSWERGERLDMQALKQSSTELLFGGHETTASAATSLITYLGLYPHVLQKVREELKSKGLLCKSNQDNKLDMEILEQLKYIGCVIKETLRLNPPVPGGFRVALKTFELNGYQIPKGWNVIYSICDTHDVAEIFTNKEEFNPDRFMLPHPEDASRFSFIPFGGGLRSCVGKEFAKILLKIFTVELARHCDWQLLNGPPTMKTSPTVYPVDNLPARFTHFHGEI

Test [2] has as its target CYP26B1 (Homo sapiens (Human), UniProt Q9NR63). The test is described as follows: Cell-based inhibitor assay, [H]-RA metabolism in CYP26B1 stably transfected HeLa cells. The settings on record: for IC50: CYP26B1 transfected HeLa cells, 3 hours at 37° C., inhibition of all trans-RA metabolism, read-out: IC50 26B1. On the procedure: as §1
For test [3], the system named is RA sensitive reporter construct pCYP26A1-luc in MCF-7 cells. Nature of the test: Retinoid activity assay, RA sensitive pCYP26A1-luc reporter in MCF-7 cells. The test is classed as cell-based. The settings on record: 24 hours, firefly relative to Renilla luciferase. An excerpt: This retinoid activity assay measures the ability of test compounds to induce expression of a transiently transfected RA sensitive reporter construct. In this assay, MCF-7 cells are transfected with a construct comprising an upstream promoter of the CYP26A1 gene containing 2 RA response elements driving expression of firefly luciferase (pCYP26A1-luc). Since CYP26A1 is highly inducible by RA in these cells, this construct serves as a sensitive reporter of retinoid-like transcriptional activity.
MCF-7 cells were maintained in RPMI-1640 medium containing 10% FBS. Exponentially growing cells were harvested by incubation in trypsin. Cells were then collected and plated in 24-well plates at 50,000 cells/well. Once cells reached 80-90% confluence (e.g., the next day), cells were transfected with two plasmids. The first plasmid was CYP26A1-luc construct (375 ng). The second plasmid was a control plasmid comprising the Renilla luciferase gene driven by constitutive thymidine kinase promoter (pRL-tk) (25 ng). Transfection was performed using FuGene 6 transfection reagent (Promega) with a 1:3 ratio of DNA:FuGene. 24 hours after transfection, cells were treated with test compounds diluted in DMSO in triplicate at 0.1, 1 and 10 μM final concentrations. As a positive control for reporter activation, cells were also treated with RA diluted in DMSO at the same concentrations listed above. DMSO treatment alone served as a negative control. After 24 hours of treatment, cells were harvested in passive lysis buffer (Promega) and luciferase activity in cell lysates were read using a luminometer. Data are expressed as the activity of firefly luciferase relative to Renilla luciferase (see Table 3). For CYP26A1 inhibitor compounds, no activation of the reporter was detected, while the related retinoid-like compound induces luciferase expression.

The subject of test [4] is CYP26A1 expression in MCF-7 cells. Nature of the test: Enhancement of RA activity assay, qPCR of CYP26A1 in MCF-7 cells treated with RA plus compound. The settings on record: 1 μM RA + 1 μM compound, 24, 48, 72 hours. The test is classed as cell-based. The method, then:
An RA activity assay was used to measure the ability of compounds that inhibit CYP26A1 to enhance activity of RA, for example, by limiting its catabolism. This assay measured expression of endogenous RA target genes in MCF-7 cells that have been treated with RA and a compound of interest. A compound that inhibits CYP26 activity will have the effect of prolonging the induction of RA target genes in response to RA.
Exponentially growing MCF-7 cells were treated with trypsin, collected and plated into 6-well culture dishes at 300,000 cells per well. […] RA was also added at a final concentration of 1 μM. RNA was harvested using Trizol reagent after 24, 48, and 72 hours of treatment. cDNA was synthesized from 2 μg of total RNA using Superscript III cDNA synthesis kit with random priming (available from Life Technologies, Burlington, ON, Canada). Analysis of expression of the RA inducible CYP26A1 gene was quantified by qPCR normalized against expression of PMM2 with Sybr Select Master Mix (Life Technologies) and gene specific primers in a two-step thermal cycling reaction. Data is provided for a CYP26A1 selective inhibitor, which enhances the induction of CYP26A1.
(In general: In qPCR the cycle at which signal appears reflects the starting amount.)

The test system is the same in test [5]. Nature of the test: qPCR of endogenous RA target gene CYP26A1 in MCF-7 cells, compound alone. In kind it is cell-based. Particulars: 1 μM. On the procedure: Additionally, for some compounds of particular interest, a second assay is performed to measure expression of endogenous RA target genes after treatment with test compounds in MCF-7 cells. Exponentially growing MCF-7 cells were treated with trypsin, collected and plated into 6-well culture dishes at 300,000 cells per well. Once cells reached confluency, they were treated with test compounds diluted in DMSO to a final concentration of 1 μM. As a positive control, cells were also treated with RA at 1 μM final concentration. After 24 hours of treatment, RNA was harvested using TRI reagent (available from Sigma-Aldrich, Oakville, Canada). cDNA was synthesized from 2 μg of total RNA using Superscript III cDNA synthesis kit with random priming (kit available from Life Technologies, Burlington, ON, Canada). Analysis of expression of a RA inducible CYP26A1 gene was quantified by qPCR normalized against expression of PMM2 with Sybr Select Master Mix (Life Technologies) and gene specific primers in a two-step thermal cycling reaction. Data is shown in Table 2 for select compounds of interest. […] See FIGS. 1 and 2 for graphs of retinoid activity.

Sequence of CYP26B1 (Q9NR63 whole entry, species assumed): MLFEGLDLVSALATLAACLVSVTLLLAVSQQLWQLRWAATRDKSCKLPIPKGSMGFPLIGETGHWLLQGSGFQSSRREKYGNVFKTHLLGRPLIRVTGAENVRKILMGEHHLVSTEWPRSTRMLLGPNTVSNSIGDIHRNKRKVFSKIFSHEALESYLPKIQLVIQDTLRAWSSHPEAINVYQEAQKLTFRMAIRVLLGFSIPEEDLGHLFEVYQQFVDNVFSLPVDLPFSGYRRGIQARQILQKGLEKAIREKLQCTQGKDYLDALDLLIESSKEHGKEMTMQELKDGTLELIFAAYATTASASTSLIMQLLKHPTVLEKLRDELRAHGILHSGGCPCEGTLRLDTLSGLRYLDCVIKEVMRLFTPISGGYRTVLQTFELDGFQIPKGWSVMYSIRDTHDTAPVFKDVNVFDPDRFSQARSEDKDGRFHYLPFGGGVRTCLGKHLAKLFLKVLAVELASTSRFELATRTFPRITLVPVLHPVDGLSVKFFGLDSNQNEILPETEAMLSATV

What is called IC50 is the midpoint of a concentration-inhibition curve. `Cc1cc2c(cc1S(=O)(=O)Nc1ccc(C(C)(C)C(=O)O)cc1)C(C)(C)CCC2(C)C` [Cmpd 12]: the “inhibitory activity towards CYP26A1 (in words)” value in test [1] is on record as “selective inhibitory activity towards CYP26A1”. The IC50 in test [1] is 0.1 µM; in test [2], above 1000 µM. In addition, the “inhibition of CYP26A1-mediated RA metabolism compared with ketoconazole (in words)” value in test [1] (see IC50 values in Table 2) is “comparable to or better than ketoconazole”. In test [2], the “inhibition of CYP26B1 enzyme (in words)” value is “None of the above compounds inhibited the CYP26B1 enzyme”. In addition, the figures for the “Luciferase Activity RLU Avg” value in test [3] (0.1 μM), in test [3] (1 μM) and in test [3] (10 μM) were 0.067 RLU, 0.082 RLU and 0.041 RLU, respectively. Moreover, the “enhancement of RA signaling, induction of CYP26A1 expression (in words)” value was “greatly enhance RA signaling” in test [4] and “enhancement of RA signaling” in test [4] (listed as GGP12).
As to `CC1(C)CCC(C)(C)c2cc(S(=O)(=O)Nc3ccc(C(=O)O)cc3)ccc21` [Cmpd 15], the “inhibitory activity towards CYP26A1 (in words)” value in test [1] is “does not exhibit any inhibitory activity”. Also, the IC50 is above 1000 µM in test [1] and above 100 µM in test [2]. Further, in test [2], the “inhibition of CYP26B1 enzyme (in words)” value was “does not exhibit any inhibitory activity”. Besides, the “Luciferase Activity RLU Avg” value in test [3] (0.1 μM) worked out at 0.129 RLU; in test [3] (1 μM) it was 0.212 RLU; in test [3] (10 μM), 0.816 RLU. Also, the “expression of RA target genes, compound given alone (in words)” value in test [5] is “induces expression of the RA target gene CYP26A1”. Besides, the “retinoid-like activity (in words)” value in test [5] (FIG. 8) is listed as “does exhibit retinoid-like activity”.
